The results in this text go back to patent US10927075B2, “Compositions and methods relating to the treatment of cancer, autoimmune disease, and neurodegenerative disease” (THE JACKSON LABORATORY, priority 2014, dated 2021).

Data set [1] relates to Primary mouse B cells (WT). Briefly: Micronuclei assay. The class given is cell-based. The conditions noted are these: 100 nM, WT cells, 3 days.
Data set [2] has as its system AID-expressing mouse B-lymphocytes.
A further data set concerns mES cells. Briefly: DR-GFP reporter assay (HR repair of endonuclease generated DSB). The class given is cell-based, mouse. The conditions noted are these: 100 nM, compared to DMSO.
Data set [3] deals with primary B-cells from Trp53−/− mice. Put plainly: Viability of activated primary B-cells. The conditions noted are these: 100 nM, 4-day activation. It counts as cell-based, mouse. As for the experimental part:
Cell death mediated by C-1523 is p53-dependent. It was hypothesized that AID-dependent cytotoxicity induced by C-1523 would be associated with p53-mediated apoptosis. To test the importance of p53, a central regulator of cellular responses to DNA damage, viability was measured in mouse primary B-cells from Trp53+/+ versus Trp53−/− mice following exposure to C-1523. […] Caspase 3 activation, a marker of apoptotic cell death, was measured in C-1523 treated B-cells. B-cells were stained with an antibody that recognizes cleaved, activated caspase-3 (AC3) and the number of AC3-positive cells was measured via immunofluorescence microscopy. Following 10 Gy of ionizing irradiation Trp53+/+(WT), but not Trp53−/− cultures show a >30-fold increase in the percentage of AC3+ cells, confirming Trp53 dependent apoptosis in these cells after DNA damage. […] In order to more completely rule out apoptosis as the mode of cell death following C-1523 treatment in B cells, the expression of other common markers of apoptotic induction was examined via Western Blot.
Cell lines and cell culture. […] Immunofluorescence.

The next data set addresses RAD51 (Mus musculus, UniProt Q08297). Put plainly: RAD51 nucleocytoplasmic distribution by cell fractionation and Western blotting. The class given is cell-based. On the set-up: quantitation of RAD51 expression in nuclear and cytoplasmic fractions as determined by Western Blot; endogenous in cells. As for the experimental part: It was next tested whether C-1523 would affect RAD51 localization or DNA damage-induced focus formation. Primary mouse B-cells were treated with 100 nM C-1523 (or vehicle control) and given either 0 or 2.5Gy ionizing irradiation. Following recovery in cell culture, cells were fixed and stained for immunofluorescence imaging to measure subcellular localization of RAD51. […] To confirm the effect of C-1523 on RAD51 subcellular localization, nucleocytoplasmic distribution was independently measured following C-1523 treatment by cell fractionation and Western blotting (FIG. 13D; Supplemental FIG. 2). […] This effect on subcellular localization was specific to RAD51, as localization of NF-kB, which undergoes nuclear translocation and homing to genomic target sites after cell stimulation, was unaffected by C-1523 exposure (FIGS. 13E-13F).

For data set [4], the system named is primary WT mouse splenic B cells. Put plainly: H2AX foci immunostaining in activated B-lymphocytes. The class given is cell-based. The conditions noted are these: 100 nM. As to the method: FIG. 15A depicts an analysis of primary WT (AID+/+, closed markers) and AID−/− (open markers) murine B cell proliferation under activating conditions (αCD40 and IL-4 on days 0 and 2) and treated with the indicated doses of C-1523 for 4 days. Measurement of cell proliferation was determined by Trypan Blue staining and counting of viable, non-staining, cells via hemocytometer. Data are represented as the mean cell count for each condition. FIG. 15B depicts data from experiments in which primary B cells from A were stained with PI on day 4 and analyzed via flow cytometry for the percentage of cells that were non-viable, PI-positive (PI+). FIG. 15C depicts RT-PCR analysis of AID expression in cultured human cell lines. Water (H2O) and RNA from HEK293T cells were employed as negative controls for template and AID expression, respectively, and human activated B lymphocyte RNA (Stim B) was used as a positive control. GAPDH expression was included as a loading control. […] Viability was determined by Trypan Blue staining and counting via hemocytometer. […] FIG. 15F depicts quantitation of foci observed in AID−/− and WT cells represented in FIG. 15E. […]
To determine whether the cytotoxic effect of C-1523 in AID-expressing cells was associated with DNA damage overload, the accumulation of unrepaired AID-initiated DSBs was measured by H2AX immunoostaining, in activated mouse B-lymphocytes (FIGS. 15E, 15F). […]

RAD51, sequence (Q08297 whole entry): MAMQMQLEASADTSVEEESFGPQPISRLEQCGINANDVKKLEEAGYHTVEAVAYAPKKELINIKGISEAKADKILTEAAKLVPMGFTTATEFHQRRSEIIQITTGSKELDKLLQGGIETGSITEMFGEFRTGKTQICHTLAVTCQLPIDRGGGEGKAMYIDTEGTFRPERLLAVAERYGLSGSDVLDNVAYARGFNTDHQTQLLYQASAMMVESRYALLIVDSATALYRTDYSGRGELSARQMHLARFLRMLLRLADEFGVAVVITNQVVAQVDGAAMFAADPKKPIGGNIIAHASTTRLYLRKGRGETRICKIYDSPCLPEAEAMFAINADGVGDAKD

With `CC(=O)Nc1ccc(/C=C/c2ccc(NC(=S)NC(C)C)cc2S(=O)(=O)O)c(S(=O)(=O)O)c1` [C-1523, (E)-5-acetamido-2-(4-(3-isopropylthioureido)-2-sulfonatostyryl)benzenesulfonate], the “increase in micronuclei compared to DMSO” value in data set [1] is given as 9 fold. For the same compound, in data set [2], the “concentration eliciting AID-specific cytotoxicity” value amounted to 100 nM and the “rank among DIDS analogs tested” value is listed as “most potent DIDS analog tested”. For the same compound, the “AID+:AID− activity score: effect in AID+ cells versus corresponding AID- cells” value in data set [2] (10 μM) was “roughly 6 fold”. In addition, the “effectiveness relative to DIDS” value in data set [2] (Example 3 summary) came out at 1000 times. In addition, the “potency relative to DIDS” value in data set [2] (dose response data) is reported as “at least 1500 times”. Besides, the “reduction of percentage of GFP-positive cells” value with mES cells is “about 40%”. Also, the viability result in data set [3] is “did not show reduced viability”. Moreover, the “fraction of RAD51 localized to the nucleus, following irradiation” value on RAD51 was “small, but measurable reduction”. In addition, the “fraction of cells with supernumerary foci (3-10 per cell)” value in data set [4] is listed as “significant increase”. For the same compound, in data set [4] (αCD40 and IL-4), the H2AX foci entry is recorded as “accumulation of H2AX foci”.
